Results as given in patent US8906953B2, “Pyrrolidine substitute flavones for the treatment of inflammatory disorders” (Piramal Enterprises Limited, priority 2010, dated 2014).

Tested on: IL-1β
Experiment: LPS-induced IL-1β release from hPBMCs (ELISA)
Type: cell-based
Conditions: Homo sapiens
Method: Cytokine production by lipopolysaccharides (LPS) in hPBMCs (human peripheral blood mononuclear cells) was measured as in reference, Physiol. Res. 2003, 52, 593-598, the disclosure of which is incorporated by reference for the teaching of the assay. Blood was collected from healthy donors into Potassium EDTA vacutainer tubes (BID vacutainer). The PBMC were isolated using gradient centrifugation in Histopaque-1077 solution (Sigma). Isolated PBMC were suspended in RPMI 1640 (Rosewell Park Memorial Institute) culture medium (Sigma-Aldrich Fine Chemicals, USA) containing 10% fetal bovine serum (FBS) (JRH, USA), 100 U/mL penicillin (Sigma Chemical Co. St Louis, Mo., USA) and 100 μg/mL streptomycin (Sigma Chemical Co. St Louis, Mo.). The cell concentration was adjusted to 1×10^6 cells/mL. The viability as determined by trypan blue dye exclusion was uniform Ly≧98%. The cell suspension (100 μL) was added to the wells of a 96-well culture plate. Following cell plating, 79 μL of the culture medium and 1 μL of various concentrations of test compounds (compounds of formula 1) (final concentration 0.001, 0.003, 0.005, 0.01, 0.025, 0.03, 0.05, 0.1, 0.25, 0.3 and 1 μM) dissolved in DMSO (dimethyl sulfoxide, Sigma, Mo., USA) were added to the cells. The final concentration of DMSO was adjusted to 0.5%. The vehicle (0.5% DMSO) was used as control. […]

IC50: 100 nM
Structure (SMILES): CN1CC[C@@H](c2c(O)cc(O)c3c(=O)cc(-c4ccc(C(F)(F)F)cc4Cl)oc23)[C@@H]1CO.Cl [Compound of example 3, (+)-trans-2-(2-Chloro-4-trifluoromethyl-phenyl)-5,7-dihydroxy-8-(2-hydroxymethyl-1-methyl-pyrrolidin-3-yl)-chromen-4-one hydrochloride]
